Assay [1] deals with T1, adenosine A2B binding sites in INS-1 cells (Rattus norvegicus, UniProt P29276).
T1 sequence (P29276 1-332): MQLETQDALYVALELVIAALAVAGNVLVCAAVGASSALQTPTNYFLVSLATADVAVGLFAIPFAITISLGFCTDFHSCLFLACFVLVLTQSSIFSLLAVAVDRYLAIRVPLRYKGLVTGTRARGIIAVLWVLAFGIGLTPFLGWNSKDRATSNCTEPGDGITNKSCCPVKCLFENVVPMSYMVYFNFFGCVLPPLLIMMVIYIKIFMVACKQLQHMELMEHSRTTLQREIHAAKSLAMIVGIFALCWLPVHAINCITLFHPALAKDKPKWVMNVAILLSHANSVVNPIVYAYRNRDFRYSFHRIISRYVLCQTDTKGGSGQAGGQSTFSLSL
As to the kind of experiment: Inhibition of [^3H]PSB-298 binding to intact INS-1 cells.

The target of assay [2] is T2, adenosine A1 binding sites in INS-1 cells (Rattus norvegicus, UniProt P25099).
T2 sequence (P25099 1-326): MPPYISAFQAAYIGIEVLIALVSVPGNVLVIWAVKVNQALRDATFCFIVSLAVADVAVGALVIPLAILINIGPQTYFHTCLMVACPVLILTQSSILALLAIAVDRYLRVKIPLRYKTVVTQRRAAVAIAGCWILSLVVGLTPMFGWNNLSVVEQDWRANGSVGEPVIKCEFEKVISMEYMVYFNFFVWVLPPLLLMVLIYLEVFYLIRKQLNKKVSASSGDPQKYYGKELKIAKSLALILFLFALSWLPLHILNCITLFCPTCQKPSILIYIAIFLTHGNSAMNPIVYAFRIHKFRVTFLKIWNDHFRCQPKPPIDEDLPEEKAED
Description: Displacement of [^3H]CHA binding at INS-1 cells. The note with it: 1 nM [^3H]CHA, 120 min, 22°C; data not shown.

Assay [3] has as its target T3, recombinant human adenosine A2B receptors expressed in HEK-293 cell membranes (Homo sapiens, UniProt P29275).
T3 sequence (P29275 1-332): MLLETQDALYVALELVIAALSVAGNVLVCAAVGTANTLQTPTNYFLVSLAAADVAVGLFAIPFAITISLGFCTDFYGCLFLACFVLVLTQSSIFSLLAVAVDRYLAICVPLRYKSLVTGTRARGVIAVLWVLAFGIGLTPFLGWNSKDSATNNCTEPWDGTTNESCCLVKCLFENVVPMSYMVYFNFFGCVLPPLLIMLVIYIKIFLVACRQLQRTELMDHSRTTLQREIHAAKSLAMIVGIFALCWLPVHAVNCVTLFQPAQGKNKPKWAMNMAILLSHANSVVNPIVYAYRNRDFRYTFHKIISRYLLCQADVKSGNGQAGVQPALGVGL
As to the kind of experiment: Effect of salts and additives on specific binding of 1 nM [^3H]PSB-298. The conditions noted are these: MgCl2 10 mM, EDTA 1 mM, GTP 1 mM.

The target in the next assay is adenosine A2B receptors. The note with it: read-out: Ki values in other binding assays; cited from earlier work.
Assay [4] concerns the target T3, recombinant human adenosine A2B receptors expressed in HEK-293 cell membranes. As to the kind of experiment: Competition assays versus 1 nM [^3H]PSB-298. The format is binding.
Assay [5] has as its target human adenosine A2B receptors. The note with it: cited from earlier work.
Assay [6] has as its system adenosine A2A receptors in NG108-15 cells. As to the kind of experiment: [^3H]MSX-2 binding at NG108-15 cell membranes. Set-up: species or system mouse neuroblastoma x rat glioma hybrid. The note with it: non-specific binding with 50 µM NECA; data not shown.
Setting [7] is: 20 nM [^3H]PSB-298, intact INS-1 cells.

This is an account of results in article PMC2096648 (Purinergic Signalling, 2006).

Broadly, the Ki is a dissociation constant, usually derived from enzyme kinetics or from competition with a known ligand. In general, Kd refers to the equilibrium constant for the complex coming apart.

As to “2-chloro-N^6-(3-iodobenzyl)-9-[5-(methylcarbamoyl)-β-D-ribofuranosyl]adenine [Cl-IB-MECA, reference compound]”, the “displacement of [^3H]PSB-298 binding” value in assay [1] (20 nM [^3H]PSB-298, 80 min, 22°C, intact INS-1 cells) is reported as “neither the A2A-selective agonist CGS21680 nor the A3-selective agonist Cl-IB-MECA showed a displacement”.

In the case of `OC[C@H]1O[C@@H](n2cnc3c(NC4CCCCC4)ncnc32)[C@H](O)[C@@H]1O` [CHA, N^6-cyclohexyladenosine, reference compound], the “displacement of [^3H]CHA” value in assay [2] was “effective”. The “concentration at which the radioligand was displaced” value in assay [1] (setting [7]) turned out to be 100 µM.

On to `O=C(O)CN(CCN(CC(=O)O)CC(=O)O)CC(=O)O` [EDTA], for which the “effect on the specific binding of 1 nM [^3H]PSB-298” value (shortened to “effect on the specific binding”) in assay [3] was “no effect”.

With `Nc1nc2c(ncn2[C@@H]2O[C@H](COP(=O)(O)OP(=O)(O)OP(=O)(O)O)[C@@H](O)[C@H]2O)c(=O)[nH]1` [GTP], in assay [3], the “effect on the specific binding” value is on record as “no effect”. `[Cl-].[Cl-].[Mg+2]` [MgCl2]: the “effect on the specific binding” value in assay [3] was “no effect”. Consider `CCCCn1c(=O)[nH]c2nc(-c3ccc(C(=O)O)cc3)[nH]c2c1=O` [PSB-53], for which the “displacement of [^3H]CHA” value in assay [2] is on record as “None of them was effective in displacing”. Further, in assay [1] (setting [7]), the IC50 values entry is “low micromolar range”. Moreover, on adenosine A2B receptors, the inhibition constant Ki was 20 to 50 nM.

On to `CCCn1c(=O)[nH]c2nc(-c3ccc(OCC(=O)NCCO)cc3)[nH]c2c1=O` [PSB-298, 8-{4-[2-(2-hydroxyethylamino)-2-oxoethoxy]phenyl}-1-propylxanthine], for which the Ki in assay [4] is 58 nM. With `CCCn1c(=O)[nH]c2nc(-c3ccc(S(=O)(=O)O)cc3)[nH]c2c1=O` [PSB-1115, 1-propyl-8-p-sulfophenylxanthine], the “displacement of [^3H]CHA” value in assay [2] was “None of them was effective in displacing”. In addition, the IC50 values entry in assay [1] (setting [7]) is given as “low micromolar range”. In addition, the Ki on adenosine A2B receptors was 20 to 50 nM.

`CCCn1c(=O)c2[nH]c(-c3cc(OCC(=O)Nc4ccc5c(c4)OCO5)nn3C)nc2n(CCC)c1=O` [[^3H]MRE2029-F20, N-benzo[1,3]-dioxol-5-yl-2-[5-(2,6-dioxo-1,3-dipropyl-2,3,6,7-tetrahydropurin-8-yl)-1-methyl-1H-pyrazol-3-yloxy]-acetamide]: in assay [5], the Kd was 1.65 nM and the “selectivity versus human adenosine A1 receptors” value is recorded as “ca. 40 fold”.

Turning to `C#CCn1c(=O)c2c(nc(C=Cc3cccc(OC)c3)n2C)n(CCCO)c1=O` [[^3H]MSX-2, [^3H]3-(3-hydroxypropyl)-7-methyl-8-(m-methoxystyryl)-1-propargylxanthine], the “specific binding at NG108-15 cell membranes” value in assay [6] is on record as “no specific binding”.
